From US8299097B2, “Methods for treating inflammatory disorders” (The Brigham and Women's Hospital, Inc., priority 2008, dated 2012)
Blank lines part the entries; values can stand above or below the compound they belong to.

Columns and labels:
human P2Y12 = human P2Y12 (Homo sapiens, UniProt Q9H244); experiment: Binding of cys-LTs to membranes of CHO cells stably expressing the human P2Y12 receptor; set-up: polyhistidine (HIS) tag (C); expressed in transfected cells
Description: A P2Y12 receptor cDNA was amplified by reverse transcriptase polymerase chain reaction (RT-PCR) from RNA extracted from primary hMCs and cloned into a mammalian expression vector. Expression was confirmed by detection of a histidine (HIS) tag by flow cytometry. Another cohort of CHO cells were stably transfected with a P2Y12 receptor construct in reverse orientation as a negative control. […] The cys-LT-induced ERK activation blocked by pre-treatment of the cells with pertussis toxin (PTX), was attenuated by treatment with the P2Y12 receptor-selective antagonist 2-methylthioadenosine monophosphate (2-MesAMP) (FIG. 1C), and was resistant to MK571, an inhibitor that blocks CysLT1R and some P2Y receptors (Mamedova, L., et al. 2005. Biochem. Pharmacol. 71:115-125). […] These responses were resistant to PTX and 2-MesAMP, and susceptible to MK571 in the case of the CysLT1R transfectants.
A human P2Y12 receptor cDNA was amplified by 30 cycles of PCR from reverse-transcribed total RNA extracted from primary cord blood hMCs. The primer sequences were 5′-[…] (SEQ ID NO: 1) and 3′-[…] (SEQ ID NO: 2). The fragment was cloned into a TA vector (INVITROGEN™). After verifying the nucleotide sequence, the fragment was subcloned into the multiple cloning site of the expression vector pEF1/His B, encoding a C-terminal polyhistidine (HIS) tag. A plasmid expressing the P2Y12 receptor construct in the forward orientation were transfected into CHO cells using Fugene HD reagent according to manufacturer's protocol. A construct in the reverse sequence was transfected in parallel as a negative control. […]
[^3H] […] Protein concentration was determined using Biorad Protein Assay Kit. […] The residual membrane-associated [^3H] on the filter was determined in 2 ml scintillation fluid by beta counter (Perkin Elmer). For [^3H]ADP, specific binding was determined by subtracting the amount of [^3H] bound in the presence of 100 μM 2-MesADP from total binding.

human blood platelets = experiment: Platelet activation, cytofluorographic detection of P-selectin (CD62P); type: cell-based; conditions: ADP 100 μM or LTE4 1 μM, 10 min
Experimental: (§1) FIG. 6. […] Each antibody (Ab) was diluted in 50 μl of sterile saline. […] 6A. PAS stains of the lungs of representative mice treated with isotype control (top) or with an anti-CD42 platelet-depleting antibody (bottom). 6B. Inflammation (top) and goblet cell metaplasia (bottom) in the lungs of mice treated with the indicated LT and antibody. A cohort of mice was treated with clopidogrel as indicated. Results in 6B are from a single experiment with 5 mice per group. […] 6C. […] Results are from a single experiment performed three times on different donors.
(§2) Platelets accumulate in the lungs of asthmatic individuals (Jeffery, P. K., et al. 1989. Am. Rev. Respir. Dis. 140:1745-1753), and are also recruited to the lungs of ovalbumin sensitized and challenged mice by an IgE-dependent mechanism (Pitchford, S. C., et al. 2008. Am. J. Respir. Crit. Care Med. 177:604-612).

[1] = test system: CHO cells expressing CysLT1R, CysLT2R, or P2Y12 receptors; experiment: Calcium flux in Fura-2-AM-loaded CHO transfectants; type: cell-based, human; conditions: LTE4 500 nM, ADP 100 μM; ADP response reflects endogenous P2Y receptors
5-LO = target: T1, 5-LO (Homo sapiens, UniProt P09917); conditions: cited from earlier work
T1 sequence (P09917 1-674): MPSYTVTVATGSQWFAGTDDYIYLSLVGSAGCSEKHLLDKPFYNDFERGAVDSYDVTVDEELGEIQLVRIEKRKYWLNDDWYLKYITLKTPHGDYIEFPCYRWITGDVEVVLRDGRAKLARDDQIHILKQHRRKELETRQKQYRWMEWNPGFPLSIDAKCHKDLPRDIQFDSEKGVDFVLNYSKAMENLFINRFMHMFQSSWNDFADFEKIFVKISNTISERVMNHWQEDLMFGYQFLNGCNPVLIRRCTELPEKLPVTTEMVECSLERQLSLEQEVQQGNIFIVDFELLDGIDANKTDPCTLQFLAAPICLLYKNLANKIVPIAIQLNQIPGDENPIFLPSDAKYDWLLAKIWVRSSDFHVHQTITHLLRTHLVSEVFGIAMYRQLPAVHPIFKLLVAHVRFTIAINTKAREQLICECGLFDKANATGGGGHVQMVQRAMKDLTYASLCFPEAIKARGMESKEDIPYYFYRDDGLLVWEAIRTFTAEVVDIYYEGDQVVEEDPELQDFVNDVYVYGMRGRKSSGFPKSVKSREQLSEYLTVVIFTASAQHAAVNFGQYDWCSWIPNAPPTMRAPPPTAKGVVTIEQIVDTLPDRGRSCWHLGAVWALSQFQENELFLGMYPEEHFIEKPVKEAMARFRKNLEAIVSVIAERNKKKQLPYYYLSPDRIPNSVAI

P2Y receptor signaling = conditions: mouse, in vivo; cited from earlier work
mouse CD42b (GPIbα) = experiment: Platelet depletion in sensitized mice given LTE4 and low-dose OVA; conditions: in vivo
Experimental: as §1, §2

P2Y12 receptors [2] = target: T2, P2Y12 receptors (Mus musculus, UniProt Q9CPV9); experiment: Clopidogrel effect on LTE4-mediated amplification of OVA-induced pulmonary inflammation; type: in vivo; set-up: from tissue; host or cells: whole animal: BALB/c (OVA model) and C57BL/6 (Der f model) mice
Experimental: FIG. 4. […] 4A. […] Clopidogrel (500 μg/ml) was added to the drinking water of the indicated groups of mice for 72 h before the first intranasal dose of LTs, and was maintained throughout the treatment. Results are mean±SEM from at least 9 mice in each group. The experiments were repeated three times with similar results. 4B. PAS stains (left column) from representative mice in the indicated groups showing the effect of clopidigrel on goblet cell metaplasia. Higher magnification images of H & E stains (right) from the same animals showing cellular characteristics of the bronchovascular infiltrates. 4C. Effect of clopidogrel administration on the steady-state expression of IL-13 and MUC5AC mRNA as determined by real-time PCR of whole lung RNA extracted 24 h after the last OVA challenge of the indicated groups. Data are mean±SEM from 4-5 mice/group from a single experiment. Results in a second experiment were similar 4D-4F. […] 4D. Total cell numbers (top), percentages of eosinophils (middle), and total numbers of eosinophils in BAL fluid recovered 24 h after the last challenge with OVA. 4E. Goblet cell metaplasia (top) and representative PAS stains (bottom) from wild-type and p2ry12^−/− mice subjected to the same protocol. 4E. Inflammation scores from the same mice. Data in 4D-4F are from 4 mice per group. Results in a second experiment were similar 4G. BALB/c Cysltr1/Cysltr2^−/− mice and age-matched WT controls were subjected to the same protocol as the p2ry12^−/− mice. Total cell numbers (top), percentages of eosinophils (middle), and total numbers of eosinophils in BAL fluid recovered 24 h after the last challenge with OVA. Results are from 6 mice per group. Three experiments were performed with similar results. 4H. Goblet cell numbers (top) and representative PAS stains (bottom). 4I. Quantitative assessment of bronchovascular inflammation as determined by H & E stains. Results are from 6 mice/group.
FIG. 5. Effect of clopidogrel on LTE4-mediated amplification of pulmonary inflammation. 5A. […] The indicated mice were treated with clopidogrel for 72 h before the first dose of leukotriene. Results are mean±SEM from a minimum of 9 mice in each group. 5B. PAS stains (left column) from representative mice in the indicated groups showing the effect of clopidigrel on goblet cell metaplasia. Higher magnification images of H & E stains (right) from the same animals showing cellular characteristics of the bronchovascular infiltrates. 5C. Effect of clopidogrel administration on the steady-state expression of IL-13 and MUC5AC mRNA as determined by real-time PCR of whole lung RNA extracted 24 h after the last OVA challenge of the indicated groups. Data are mean±SEM from 4-5 mice/group. […]

P2Y12 receptors [3] = target: T2, P2Y12 receptors; conditions: both antigen doses (3 and 10 μg Der f)
Experimental: Role of P2Y12 receptors in inflammation mediated by dust mite allergen. C57BL/6 mice were treated intranasally with the indicated dose of Dermatophagoides farinae (Der f) extract twice weekly for 3 weeks. Animals were euthanized 24 h after the last dose. […] Effect of clopidogrel treatment on bronchovascular inflammation and goblet cell metaplasia in C57BL/6 mice subjected to intranasal challenge with the indicated doses of an extract from the house dust mite. Results are the mean±SEM from 5 mice/group. The experiment was repeated three times with similar results.
To determine whether pharmacologic blockade of P2Y12 receptors altered pulmonary inflammatory responses in a more physiologic model of pulmonary inflammation, C57BL/6 mice were administered an extract of house dust mite Dermatophagoides farinea (Der f) intranasally twice weekly for three weeks, with or without clopidogrel treatment. Two different doses of Der f were used to elicit moderate (at 3 μg) and severe (at 10 μg) inflammation, respectively.
For Der f-mediated pulmonary inflammation, 6-8 week old C57BL/6 mice were lightly anaesthetized and received either 3 or 10 μg of Der f extract (Greer Labs) on days 0, 3, 7, 10, 14 and 17. Some mice received clopidogrel throughout the duration of the experiment. Mice were euthanized 24 h after the last intranasal instillation.
2.5 μm thick glycolmethacrylate sections were stained with H&E for general morphologic examination. […] The extent of cellular infiltration in the bronchovascular bundles was evaluated without knowledge of the particular treatment and was categorized arbitrarily as grade 0=no inflammation, grade 1=mild inflammation, grade 2=moderate inflammation, grade 3=severe inflammation. 15 bronchovascular bundles of each mouse were evaluated. […] The length of basal lamina of corresponding bronchus was measured by Image J (NIH image analysis software). […] The data were expressed as the average of goblet cell counts stained in each bronchus in each section per mm bronchial basal lamina.

[4] = clopidogrel 500 μg/ml in drinking water

T2 sequence (Q9CPV9 whole entry): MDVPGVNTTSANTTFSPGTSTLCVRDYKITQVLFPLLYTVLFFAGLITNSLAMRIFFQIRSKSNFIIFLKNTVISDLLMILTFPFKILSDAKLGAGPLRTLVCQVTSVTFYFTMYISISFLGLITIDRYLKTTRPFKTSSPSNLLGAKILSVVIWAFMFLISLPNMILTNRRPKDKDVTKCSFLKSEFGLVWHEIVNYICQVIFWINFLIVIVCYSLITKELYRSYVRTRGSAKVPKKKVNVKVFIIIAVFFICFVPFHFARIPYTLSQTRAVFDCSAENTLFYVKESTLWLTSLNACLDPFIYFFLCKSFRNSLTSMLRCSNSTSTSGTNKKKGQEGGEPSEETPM
Sequence of human P2Y12 (Q9H244 whole entry): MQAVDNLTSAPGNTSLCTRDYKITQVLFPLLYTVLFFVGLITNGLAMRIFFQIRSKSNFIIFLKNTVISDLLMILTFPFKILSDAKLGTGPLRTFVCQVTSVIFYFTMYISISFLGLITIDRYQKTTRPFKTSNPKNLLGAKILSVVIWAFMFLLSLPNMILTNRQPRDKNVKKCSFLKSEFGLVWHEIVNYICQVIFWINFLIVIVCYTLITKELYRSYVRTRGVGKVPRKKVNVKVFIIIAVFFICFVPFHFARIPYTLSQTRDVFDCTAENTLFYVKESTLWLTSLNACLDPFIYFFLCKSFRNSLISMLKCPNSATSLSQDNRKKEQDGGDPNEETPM

binding to membranes of the transfectants (human P2Y12): also bound
Compound: CCCCC/C=C\C\C=C/C=C/C=C/[C@@H](SC[C@H](NC(=O)CC[C@H](N)C(=O)O)C(=O)NCC(=O)O)[C@@H](O)CCCC(=O)O [LTC4]

Compound: Nc1ncnc2c1ncn2[C@@H]1O[C@H](COP(=O)(O)OP(=O)(O)O)[C@@H](O)[C@H]1O [ADP, adenosine diphosphate]
CD62P expression by platelets (human blood platelets): elicited CD62P expression | calcium flux [1]: did exhibit a response

Compound: CC(c1cc2ccccc2s1)N(O)C(N)=O (stereo not shown) [zileuton]
block of cys-LT generation in vivo (5-LO): ~50%

Compound: Cc1ccc(C(=O)Nc2ccc(S(=O)(=O)O)c3cc(S(=O)(=O)O)cc(S(=O)(=O)O)c23)cc1NC(=O)c1cccc(NC(=O)Nc2cccc(C(=O)Nc3cc(C(=O)Nc4ccc(S(=O)(=O)O)c5cc(S(=O)(=O)O)cc(S(=O)(=O)O)c45)ccc3C)c2)c1 [suramin]
allergen-induced pulmonary inflammation and AHR (P2Y receptor signaling): dramatically inhibited

attenuation of BAL fluid eosinophilia (P2Y12 receptors [3]): ~75% | goblet cell metaplasia (P2Y12 receptors [3]): significant reductions | pulmonary inflammation (P2Y12 receptors [3]): significant reductions
Compound: COC(=O)C(c1ccccc1Cl)N1CCc2sccc2C1 (stereo not drawn) [clopidogrel, methyl alpha-5 (4,5,6,7-tetrahydro (3,2-c)thienopyridyl)(2-chlorophenyl)-acetate]
LTE4-mediated expression of mRNA encoding IL-13 and MUC5AC (mouse CD42b (GPIbα)): sharply reduced | combination of platelet depletion with clopidogrel (mouse CD42b (GPIbα)): not additive | LTE4-induced potentiation of goblet cell metaplasia (P2Y12 receptors [2]; [4]): complete lack of LTE4-induced potentiation | LTE4-induced potentiation of inflammation (P2Y12 receptors [2]; [4]): complete lack of LTE4-induced potentiation | lung expression of IL-13 and MUC5AC mRNA (real-time PCR) (P2Y12 receptors [2]; whole lung RNA 24 h after last OVA challenge): substantially suppressed the expression of both
